How the values were obtained:
EMT-6 cells [1] = assay: Light treatment (PDT), clonogenic assay in EMT-6 cells; format: cell-based, mouse; settings: for cell killing ability: 0-20 μM drug, graded light doses, 635 nm; for cell death after light treatment: EMT-6 cells, clonogenic assay, with light; for cell survival: Five μM drug concentration with 2 J/cm^2 light treatment, 635 nm laser
Procedure: (§1) EMT-6 cells in log phase growth were plated onto 35 mm tissue culture dishes 24 hours prior to experimentation. Growth media was removed and replaced with media containing compounds (4) or (5) at the above doses—0, 2.5 μM, 5 μM and 20 μM (Initially, the drugs were dissolved in pure DMSO @ a concentration of 2 mM). They were diluted down to the appropriate concentrations in RPMI growth media. The plates were then kept at 37° C. for 3 hours in the dark and then the cells were washed 2 times in PBS and finally had 2 ml of RPMI added to each dish. Then, the dark toxicity samples were kept covered at room temperature for the equivalent time taken for light treatment of the other samples. Light treated samples were subjected to grades doses of light (0, 0.5, 1, 2.5 and 5 J/cm^2) from 635 nm laser with a fluency rate of 150 milli watts. The media was removed and the cells trypsinized and re-plated at 200 cells/60 mm dish in normal RPMI growth media. The cells were allowed to grow for 7 days and then stained with Methylene Blue and the surviving colonies counted.

BT549 cells = assay: Photodynamic activity, tritiated thymidine uptake in BT549 cells; format: cell-based; settings: for activity in the absence of light treatment: no light; for cell death after light treatment: tritiated thymidine uptake, with light
Excerpt: The photodynamic activity of compound 4 has been studied in two cell lines cells by measuring cell death post treatment by tritiated thymidine uptake (in […] cells) and clonogenic assays (in EMT-6 cells).
The photodynamic activity of ACP-compound 5 was studied in two cell lines cells by measuring cell death post treatment by tritiated thymidine uptake (in BT549 cells) and clonogenic assays (in EMT-6 cells).

normal mouse skin = assay: PDT effect on normal mouse skin; format: in vivo
Excerpt: Likewise, the photosensitizer alone without light treatment was also ineffective.

[2] = UV-visible absorption spectra in DMSO; format: physicochemical
Excerpt: The absorption spectra of compounds (4) and (5) recorded in DMSO are shown in FIG. 1 along with the parent compound (2). Based on the study of absorption spectra of hypocrellin B (2) (Diwu et al. Sinica Sol. B 18, 1993, 131), the shorter wavelength absorption bands are assigned to the π-π* transition, and the absorption bands at the longer wavelength is the relation to […] charge transfer (ICT) which may take on some active role in the photodynamic activity of the molecule. From FIG. 1, the absorption at the longer wavelengths of compounds (4) and (5) has enhanced, as compared to the parent hypocrellin B (2). The maximum absorption of compounds (4) and (5) is around 600-700 nm in DMSO which helps in tissue penetration, while the parent compound hypocrellin (2) has maximum absorption at 580 nm in DMSO. When an electron donating group like 3-dimethylaminopropylamine is introduced in the quinonoid molecule, its interaction with the adjacent carbonyl group enhances the red shift in the absorption spectra, thereby leading to an extended red shift spectral region (photodynamic window) which is important for PDT.

EMT-6 cells [3] = assay: Dark toxicity, clonogenic assay in EMT-6 cells; format: cell-based, mouse; settings: no light
Procedure: EMT-6 cells in log phase growth were plated onto 35 mm dishes 24 hours prior to experimentation. Growth media was removed and replaced with media containing compounds (4) and (5) at the doses (0, 2.5 μM, 5 μM and 20 μM). The plates were then kept at 37° C. for 3 hours in the dark and then the cells were washed 2 times in PBS then trypsinized and re-plated at 200 cells/60 mm dish in normal RPMI growth media. The cells were allowed to grow for 7 days and then stained with Methylene Blue and the surviving colonies counted.
as §1, with “Light treated samples were subjected to grades doses of light (0, 0.5, 1, 2.5 and 5 J/cm^2) from 635 nm laser with a fluency rate of 150 milli watts. The media was removed and the cells trypsinized and re-plated at 200 cells/60 mm dish in normal RPMI growth media.” left out

[4] = Phase 1 clinical study, topical application to the back of patients with acne; format: in vivo, human; settings: 10 patients with acne on the back
Excerpt: The primary objective of the study was to measure and quantify the fluorescence levels of ACP-compound 4 in sebaceous glands, epidermis and hair follicles at different time points after topical application. The study also monitored the safety of the drug product after topical administration. The study consisted of a group of 10 patients with acne on the back.

[5] = system: human (ex vivo) skin samples; assay: PDT treated human (ex vivo) skin samples, histology
EMT-6 mouse tumor model = assay: PDT in EMT-6 mouse tumor model; format: in vivo; settings: liposomal formulation (DPPC and cholesterol) combined with light treatment
Excerpt: Liposomal formulations of compound 5 for systemic delivery of the photosensitizer. The photosensitizer is formulated with a mixture of dipalmitoyl phosphatidylcholine (DPPC) and cholesterol and extruded through membrane of different pore size until the required size of liposomes was achieved.

[6] = Fluorescence spectra in chloroform; format: physicochemical
Excerpt: The introduction of the extra cyclic ring in compound (5) have shown a new fluorescent band at longer wavelength (around 725 nm), because of the […] H-atom transfer process. The new florescent band is considered to be related to the ICT between the amino group and the […] carbonyl group.

Structure (SMILES)	cell killing ability (EMT-6 cells [1])	cell death after light treatment (EMT-6 cells [1])	cell survival (EMT-6 cells [1])	activity in the absence of light treatment (BT549 cells)	cell death after light treatment (BT549 cells)	tissue damage (normal mouse skin; 70 J/cm^2, penetration for 3 to 5 hours)	tissue damage (normal mouse skin; 70 J/cm^2, penetration time of 1 or 2 hours, 7 days post treatment)	tissue damage (normal mouse skin; 100 J/cm^2, 1 hour of penetration)	tissue damage (normal mouse skin; 100 J/cm^2, 2 hours of penetration)	tissue damage (normal mouse skin; 100 J/cm^2, 3 hours of penetration)	tissue damage, photosensitizer alone (normal mouse skin; without light treatment)	absorption at the longer wavelengths as compared to the parent hypocrellin B (2) [2]	activity in the absence of light treatment (EMT-6 cells [3])	adverse events [4]	histological changes after PDT [5]	tumor response (EMT-6 mouse tumor model)	new fluorescent band at longer wavelength [6]	maximum absorption [2]
COc1c(O)c2c(=O)cc(OC)c3c4c(OC)cc(=O)c5c(O)c(NCCCN(C)C)c6c(c(c1C(C(C)=O)C(C)=C6)c23)c54 (stereo not shown) [Compound 4, 2-(N,N-dimethylaminopropyl)-amino-15-acetyl-3,10-dihydroxy-6,7,11-trimethoxy-14-methyl-15-H-cyclohepta(ghi)perylene-4,9-dione]	dose dependent cell killing ability with increasing light and drug dose	significant cell death	1 cell per 1000 plated	No significant activity	significant cell death	significant epidermal apoptosis	mild injury to the epidermal cells	only the epithelium and part of the fatty layer showed damage	Apoptosis of epidermal cells, basal layer and hair follicle	the whole tissue layer, including muscle layer showed significant damage	ineffective	enhanced	No significant activity	No adverse events have been observed	no histological changes up to two days post treatment but progressive necrotic/apoptotic changes thereafter			
COc1c(O)c2c(=O)cc(OC)c3c4c(OC)cc(=O)c5c6c(c7c(c(c1C(C(C)=O)C(C)=C7)c23)c54)NC1CCCCC1N6 (stereo not shown) [Compound 5, (2,3b)-Octahydroquinoxalin-yl-hypocrellin B derivative]	dose dependent cell killing ability with increasing light and drug dose	significant cell death	1 cell per 1000 plated	No significant activity	significant cell death							enhanced	No significant activity			Complete cure of the implanted tumor	around 725 nm	
COc1c2c3c4c(c(OC)c(=O)c5c(O)cc(OC)c(c6c(OC)cc(O)c(c1=O)c63)c54)C(C(C)=O)=C(C)C2 [hypocrellin (2), hypocrellin B, reference compound]																		580 nm

Reference: patent US8747811B2, “Perylenequinone derivatives and uses thereof” (Quest Pharmatech, Inc., priority 2005, dated 2014)
